Data from US8129557B2, “Phosphonic acid diester derivative and method for producing thereof” (priority 2005, dated 2012).

Tests used:
E-coli GGT = target: T1, E-coli GGT (Escherichia coli, UniProt P18956); test: Second-order rate constant kon of E-coli GGT inactivation (continuous or discontinuous assay); type: biochemical, Escherichia coli K-12; details: second-order rate constant for enzyme inactivation; pH 5.5, 25° C.
T1 construct: was used as a purified enzyme of E-coli GGT; made in house
T1 sequence (P18956 26-390 limits assumed): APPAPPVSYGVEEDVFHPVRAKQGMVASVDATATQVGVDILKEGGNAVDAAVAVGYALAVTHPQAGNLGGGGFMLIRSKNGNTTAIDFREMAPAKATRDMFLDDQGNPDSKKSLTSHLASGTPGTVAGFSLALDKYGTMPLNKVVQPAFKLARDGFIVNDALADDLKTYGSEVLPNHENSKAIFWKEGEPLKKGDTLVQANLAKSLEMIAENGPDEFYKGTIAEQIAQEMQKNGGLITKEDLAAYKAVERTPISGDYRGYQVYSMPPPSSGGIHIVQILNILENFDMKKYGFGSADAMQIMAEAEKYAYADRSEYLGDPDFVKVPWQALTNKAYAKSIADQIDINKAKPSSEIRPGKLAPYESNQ
T1 sequence (P18956 391-580 limits assumed): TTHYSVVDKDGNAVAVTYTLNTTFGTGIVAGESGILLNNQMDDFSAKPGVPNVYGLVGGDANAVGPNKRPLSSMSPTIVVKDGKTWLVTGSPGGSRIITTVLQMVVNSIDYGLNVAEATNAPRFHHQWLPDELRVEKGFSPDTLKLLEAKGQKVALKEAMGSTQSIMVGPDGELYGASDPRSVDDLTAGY
Description: (§1) Purified enzyme of E-coli GGT and crude enzyme of human GGT were employed as GGT samples for an inhibition experiment. The enzyme whose physicochemical properties are described in the Document (Hideyuki Suzuki, Hidehiko Kumagai, Tatsurokukro Tochikura “gamma-Glutamyltranspeptidase from Escherichia coli K-12: Purification and Properties” Journal of Bacteriology, December 1986, Vol. 168, No. 3, p. 1325-1331) was used as a purified enzyme of E-coli GGT. Enzyme [HC-GTP (product number), 603AA (lot number)] manufactured by Asahi Kasei Co., Ltd. was used as a crude enzyme of human GGT. The crude enzyme of human GGT contained a large amount of bovine serum albumin (BSA) to stabilize the enzyme, and the GGT concentration was 1% or lower.
In the hydrolytic assay of E. coli GGT, 10 μL of a […] enzyme solution was added to a 100 mM succinic acid-sodium hydroxide buffer solution (pH 5.5) in a total volume of 1 mL containing 100 μL of 2 μM substrate aqueous solution. The product, 7-amino-4-methylcoumarin (AMC), released along with the enzyme reaction was traced continuously at 25° C. using a fluorospectrophotometer F-2000 manufactured by Hitachi Ltd. (excitation wavelength: 350 nm, emission wavelength: 440 nm). The AMC concentration was separately measured by forming a calibration curve showing the relation of the fluorescence intensity (F) and the concentration (C) using standard solutions and was calculated from the relational expression (1) of the fluorescence intensity alteration (ΔF) and concentration alteration (ΔC).
(§2) Next, a second-order rate constant for enzyme inactivation kon was measured by either a continuous assay or a discontinuous assay. Both of the continuous and discontinuous assay for measuring inhibitory activity to GGT were carried out under a pseudo-first-order reaction condition.
(§3) In the continuous assay, while the temperature was kept at 25° C., the 100 mM succinic acid-sodium hydroxide buffer solutions (pH 5.5) containing an inhibitor in various concentrations and the substrate were preincubated for equilibrium. Herein, 0.2 μM of the substrate was used for the case of E-coli GGT and 0.4 μM of the substrate was used for the case of human GGT. Thereafter, the enzyme solution of the E-coli GGT was added in a manner that the final concentration became 0.04 nM and also the human GGT crude enzyme solution was added in a manner that the final concentration became 5 μg/mL. Accordingly, the reaction was started and the release of AMC (increase of the fluorescence intensity) was continuously traced for 10 minutes.
(§4) The fluorescence intensity data obtained from the respective curves was applied to the following pseudo-first-order rate equation (2) and the observed pseudo-first-order rate constant for enzyme inactivation (kobs) was calculated by nonlinear regression analysis [Stein, R. L. et al. Biochemistry 26, 2682-2689 (1987)].
(§5) [Equation 2] [P]=[P]∞[1−exp(−kobst)] (2)
(§6) When the kobs was plotted against to the inhibitor concentration ([I]), a linear relation was obtained until the maximum extent of the experimentally possible inhibitor concentration. Therefore, the second-order rate constant for enzyme inactivation kon was calculated using the following equation (3) deduced from the kinetic mechanism.
(§7) [drawing 37] [Equation 3] kobs=kon[I]/(1+[S]/Km) (3)
(§8) Herein, S denotes 7-(γ-L-glutamylamino)-4-methylcoumarin. The substrate concentration [S] for E-coli GGT is 0.2 μM and the Km value is 0.2 μM. […] The kinetic data was obtained by nonlinear regression analysis using Kaleida graph, a program produced by Synergy Software.
Further, in the discontinuous assay, an inhibitor in various concentrations was dissolved in 100 mM succinic acid-sodium hydroxide buffer solution (pH 5.5) and the enzyme solution was added to the resulting buffer solutions. […]

[1] = Chemical stability: hydrolysis ratio after storage in water at room temperature; type: physicochemical; details: stored in water at room temperature for 12 hours
Experimental: Herein, the hydrolysis ratios of the reactive compounds of Examples 1 to 11 were measured after the respective compounds were stored in water at room temperature. In this connection, the compounds other than the compound of Example 10 were stored in water for 12 hours and the compound of Example 10 was stored in water for 112 hours.

human GGT = target: T2, human GGT (Homo sapiens, UniProt P19440); test: Second-order rate constant kon of human GGT inactivation (continuous or discontinuous assay); type: biochemical
T2 construct: purchased Asahi Kasei Co., Ltd. HC-GTP (lot 603AA)
T2 sequence (P19440 1-380 limits assumed): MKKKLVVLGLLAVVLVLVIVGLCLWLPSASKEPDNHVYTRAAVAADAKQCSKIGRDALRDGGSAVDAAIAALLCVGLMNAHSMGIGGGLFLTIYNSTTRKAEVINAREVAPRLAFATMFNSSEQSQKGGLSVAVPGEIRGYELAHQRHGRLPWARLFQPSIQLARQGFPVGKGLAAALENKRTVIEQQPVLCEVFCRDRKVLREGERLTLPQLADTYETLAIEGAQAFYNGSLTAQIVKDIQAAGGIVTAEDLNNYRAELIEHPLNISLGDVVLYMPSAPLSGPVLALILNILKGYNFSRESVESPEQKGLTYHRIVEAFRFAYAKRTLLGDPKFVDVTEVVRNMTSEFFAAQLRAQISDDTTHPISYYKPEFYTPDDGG
T2 sequence (P19440 381-569 limits assumed): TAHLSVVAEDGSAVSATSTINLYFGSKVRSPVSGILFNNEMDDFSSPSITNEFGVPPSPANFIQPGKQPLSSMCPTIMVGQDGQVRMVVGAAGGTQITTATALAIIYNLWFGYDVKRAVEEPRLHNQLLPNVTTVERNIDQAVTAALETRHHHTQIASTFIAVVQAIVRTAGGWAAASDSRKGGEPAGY
Description: as §1
In the hydrolytic assay of human GGT, the measurement was carried out in the same manner as that in the hydrolytic assay of E-coli GGT, except that the substrate concentration was changed to […] and therefore, the explanation of the common portions was omitted.
as §2, §3, §4, §5, §6, §7, §8
Further, in the discontinuous assay, an inhibitor in various concentrations was dissolved in 100 mM succinic acid-sodium hydroxide buffer solution (pH 5.5) and the enzyme solution was added to the resulting buffer solutions. Herein, in the case of E-coli GGT, the enzyme solution was added in a manner that the final concentration became 0.4 nM and also the human GGT crude enzyme solution was added in a manner that the final concentration became 0.5 mg/mL. Accordingly, the reaction of the inhibitor and each GGT was conducted at 25° C. An aliquot (10 μL) of each of the reaction solutions were sampled at every specified time to measure the remaining enzyme activity by the above-mentioned enzyme activation method. The remaining enzyme activity at every time was analyzed by nonlinear regression using the pseudo-first-order rate equation (4) of enzyme inactivation to calculate the value of kobs.
[Equation 4] αt/α0=exp(−kobst) (4) […]

[2] = system: glutamine-dependent asparagine synthetase; test: Inhibition of glutamine-dependent asparagine synthetase; type: biochemical; details: 10 mM compound, incubated for 2 hours
Description: Therefore, the phosphonic acid diester derivative (1) specifically reacts on GGT.

COP(=O)(CCC(N)C(=O)O)Oc1cccc(CC(=O)O)c1 (stereo not drawn) [Example 11, 2-amino-4-{[3-(carboxymethyl)phenyl](methyl)phosphono}butanoic Acid]
kon E-coli GGT (E-coli GGT): 150 M^−1S^−1 | Hydrolysis ratio (%) [1]: 0% | plot of log kon (human GGT) against pKa of aryl group, FIG. 4 (human GGT; position relative to the straight line): deviate upward | kon of human GGT inactivation relative to the compound of Example 12 (human GGT; ratio of kon 51 to kon 0.33): about 155 times | kon Human GGT (human GGT; second-order rate constant for enzyme inactivation, pH 5.5, 25° C.): 51 M^−1S^−1 | inhibition of the function of glutamine-dependent asparagine synthetase [2]: did not inhibit
